Test results published in the NIST ThermoML archive (doi:10.1021/je200128y).
Several values for one entry are separate records, joined by “and”; a condition that tells them apart may be missing. Equal values may be shown once.

Conditions: Transpiration method

c1ccc(Nc2ccccc2)cc1 [diphenylamine]
Conditions	vapor or sublimation pressure
293.1 K, Crystal	4e-05 kPa
293.7 K, Crystal	4e-05 kPa
296.2 K, Crystal	6e-05 kPa
298.2 K, Crystal	7e-05 kPa
298.4 K, Crystal	8e-05 kPa
300.2 K, Crystal	0.0001 kPa
301 K, Crystal	0.00012 kPa
302.1 K, Crystal	0.00013 kPa
302.7 K, Crystal	0.00015 kPa
303.2 K, Crystal	0.00014 kPa
305.2 K, Crystal	0.00017 kPa
305.5 K, Crystal	0.0002 kPa
308 K, Crystal	0.00024 kPa and 0.00025 kPa
308.2 K, Crystal	0.00026 kPa
309.1 K, Crystal	0.00029 kPa
309.3 K, Crystal	0.0003 kPa
310.7 K, Crystal	0.00034 kPa
312.3 K, Crystal	0.00042 kPa
313 K, Crystal	0.00045 kPa
313.7 K, Crystal	0.0005 kPa
315 K, Crystal	0.00054 kPa and 0.00055 kPa
315.4 K, Crystal	0.00061 kPa
315.7 K, Crystal	0.0006 kPa
316 K, Crystal	0.00065 kPa
316.7 K, Crystal	0.0007 kPa
317.2 K, Crystal	0.00075 kPa
318 K, Crystal	0.00083 kPa
318.2 K, Crystal	0.00086 kPa
318.3 K, Crystal	0.00085 kPa
318.7 K, Crystal	0.00085 kPa
320.3 K, Crystal	0.00111 kPa
320.7 K, Crystal	0.0011 kPa
322.3 K, Crystal	0.00138 kPa
323.2 K, Crystal	0.00153 kPa and 0.00143 kPa
324.1 K, Crystal	0.00169 kPa
324.7 K, Crystal	0.00164 kPa
325.2 K, Crystal	0.00186 kPa
326.7 K, Crystal	0.00203 kPa
328.3 K, Liquid	0.00245 kPa
332.2 K, Liquid	0.00343 kPa
335.4 K, Liquid	0.00438 kPa
338.1 K, Liquid	0.00522 kPa
341.2 K, Liquid	0.00684 kPa
343.2 K, Liquid	0.0081 kPa
346.1 K, Liquid	0.00963 kPa
348.2 K, Liquid	0.01174 kPa
353.1 K, Liquid	0.01698 kPa
357.2 K, Liquid	0.02181 kPa
358.2 K, Liquid	0.02355 kPa
360.2 K, Liquid	0.02829 kPa
363 K, Liquid	0.0322 kPa
363.1 K, Liquid	0.03321 kPa
366.1 K, Liquid	0.04193 kPa
368.1 K, Liquid	0.04848 kPa
368.3 K, Liquid	0.04791 kPa
371.9 K, Liquid	0.06108 kPa
373.1 K, Liquid	0.06621 kPa
